{"source": "patent US20190350930A1", "about": "“COMPOSITION FOR CONTROLLING GASTROESOPHAGEAL REFLUX DISEASES” (bitop AG, priority 2016, published 2019)", "tested_on": "mucus-forming epithelial cells TR146", "assay": "in vitro cell culture model: TR146 cells damaged with acidic HCl/pepsin solution, then incubated with ectoine; cell count by neutral red cytotoxicity assay", "assay_type": "cell-based", "details": "FIG. 1", "method": "The cells were treated with acid solutions containing the digestive enzyme pepsin and following this treated with ectoine. TR146 cells were added to a microplate having 96 wells, with the cells being allowed to grow until the surface was almost completely covered. The cells were then treated for 10 min. with a diluted acidic HCl solution together with pepsin in a cell culture medium. The concentration of pepsin was 2 U/ml. Following this, the cells were washed with PBS (phosphate buffered saline) and incubated overnight either with ectoine or for control purposes with pure solvent. After incubation, a cell count determination was carried out using a […] for which a cyanine-based nucleic acid dye was employed. The assay is based on the fact that the plasma membrane of damaged or dead cells becomes permeable to the dye and the dye binds to the DNA of the cell, which is associated with a corresponding increase in fluorescence. For […] control, cells were treated with 0.1% sodium dodecyl sulfate (SDS) solution as denaturing agent. Other cells (full medium) were not treated with acid/pepsin.", "data": [{"smiles": "CC1=NCC[C@@H](C(=O)O)N1", "note": "(stereo in doubt) [ectoine, 2-methyl-1,4,5,6-tetrahydropyrimidine-4-carboxylic acid]", "values": [{"measurement": "effect with respect to the regeneration of the cells", "setting": "50 mM ectoine, overnight incubation after 10 min acidic HCl solution with pepsin 2 U/ml", "value": "excellent effect"}, {"measurement": "cell viability", "setting": "cells treated with ectoine (50 mM) after acid/pepsin, compared with full-medium cells not treated with acid/pepsin", "value": "comparable to that of cells that were not subjected to a treatment with an acidic pepsin solution"}]}]}
